Results on two compounds are retold here after patent US12577197B2, “Methods of preparing N6-((2-azidoethoxy)carbonyl)lysine” (SANOFI, priority 2019, dated 2026).

“And” between values parts separate entries of the source, which are not always exact repeats. Identical values can stand only once.

The nature of data set [1]: Time to maximum rate (TMR) estimated from phi factor corrected ARC data. The class given is physicochemical. From the text:
Test data obtained from the ARC can be used to estimate the self-accelerating decomposition temperature of a sample (J. K. Wilberforce, “The Use of the Accelerating Rate calorimeter to determine the SADT of organic peroxides,” Columbia Scientific Industries, Milton Keynes; Harold G. Fisher and David D. Goetz, “Determination of self-accelerating decomposition temperature using the accelerating rate calorimeter,” J. Loss Prev. Process Ind., 1991, Vol 4., 305-316). Time to maximum rate (TMR) is defined as the amount of time that is needed for a reaction to reach its maximum self-heating rate or pressure rate in a thermal runaway reaction. TMR data was extracted from the phi factor corrected test data and a plot of Ln(TMR) against −1000/T was generated (FIG. 4).
The following equation was taken from FIG. 4 to allow the determination of the time to maximum rate as a function of temperature: Ln(TMR(s))=−16.389*(−1000/(T(K)))−29.262 The TMR increases as the batch temperature decreases. The measured exotherm was used to estimate the TMR. The results are provided only as a reference, as it is based on a single ARC test and not a detailed kinetic study (FIG. 5).

The nature of data set [2]: Accelerating rate calorimetry (ARC) study, heat-wait-search mode. The note with it: for Onset temperature of exotherm / Onset of exothermic activity: HWS mode, adiabatic, air, titanium bomb; for ΔT adiabatic / Adiabatic Temperature Rise (phi corrected): phi factor 1.6684.
Data set [3] can be described thus: Effect of pH on solubility in water (HPLC of supernatant). The class given is physicochemical. As to the method: To further purify N^6-((2-azidoethoxy)carbonyl)-L-lysine (Formula (VIa)), a suspension of N^6-((2-azidoethoxy)carbonyl)-L-lysine (Formula (VIa)) in water was prepared, followed by addition of HC1 to form a solution. Neutralization of the resulting solution with ammonium hydroxide reprecipitates the product and further purges the material of residual impurities, which remain in solution. In order to improve product yield, the effect of pH on the solubility of N^6-((2-azidoethoxy)carbonyl)-L-lysine (Formula (VIa)) was examined. Briefly, this study involved suspending N^6-((2-azidoethoxy)carbonyl)-L-lysine (Formula (VIa)) in water, progressively basifying the mixture, and determining the amount of N^6-((2-azidoethoxy)carbonyl)-L-lysine (Formula (VIa)) in the supernatant as a function of pH.
N^6-((2-azidoethoxy)carbonyl)-L-lysine (Formula (VIa)) (0.95 g) was charged into a 20 mL glass scintillation vial along with water (7.2 g). The resulting suspension was thoroughly mixed on a vortex apparatus for 60 seconds, then allowed to settle for 5 minutes. The pH of the supernatant was measured at 4.44 and an aliquot was taken and diluted with HPLC eluent (H2O:CH3CN 1:1, 0.1% TFA). The sample was analyzed by HPLC (column: ACE Excel 3 Super C18, 4.6×150 mm, 3.0 μm, flow rate: 1.2 mL/min, phase A: 0.1% TFA in water, phase B: 0.1% TFA in acetonitrile) and the content of N^6-((2-azidoethoxy)carbonyl)-L-lysine (Formula (VIa)) was calculated based on HPLC analysis of Formula (VIa) standards.
The contents of the scintillation vial were basified by addition of a drop of 28-30% ammonium hydroxide, and the suspension was vortexed, allowed to decant, and the supernatant was again sampled and analyzed by HPLC.

On to `CC(C)(C)OC(=O)N[C@@H](CCCCNC(=O)OCCN=[N+]=[N-])C(=O)OC(C)(C)C` [Formula (IIIa)], for which the “Time to maximum rate (TMR)” value is 48.3 h in data set [1] (122.0 ° C.), 23.5 h in data set [1] (129.0 ° C.), 7.9 h in data set [1] (140.0 ° C.) and 1.3 h in data set [1] (160.0 ° C. (onset temperature of 2nd exotherm)). The “Maximum pressure of test” value in data set [2] is on record as 157.1 Bar gauge. Besides, in data set [2], the “Maximum pressure rate of test” value is listed as 2.756 Bar min^−1. The “Maximum self-heating rate of test” value in data set [2] stood at 2.10 K min^−1. Also, the “Temperature at maximum pressure rate” value in data set [2] was found to be 208.5 °C. In data set [2], the “Temperature at maximum self-heat rate” value came out at 211.5 °C. In addition, the entries for the “Final temperature of exotherm / End of exothermic activity” value in data set [2] (1st exotherm) and in data set [2] (2nd exotherm) were 100.79 °C and 227.19 °C, respectively. Moreover, the results for the ΔT in data set [2] (1st exotherm) and in data set [2] (2nd exotherm) were 0.65 °C and 66.71 °C, respectively. Moreover, the “Onset temperature of exotherm / Onset of exothermic activity” value was 100.14 °C in data set [2] (1st exotherm); 160.5 °C and 160.48 °C in data set [2] (2nd (major) exotherm). Moreover, the “ΔT adiabatic / Adiabatic Temperature Rise (phi corrected)” value is 1.08 °C in data set [2] (1st exotherm) and 111.29 °C in data set [2] (2nd exotherm). Also, the ΔH reaction in data set [2] (1st exotherm, sample heat capacity estimated 2.10) is recorded as −2.27 Joule/gram; in data set [2] (2nd exotherm, sample heat capacity estimated 2.10), −233.71 Joule/gram; in data set [2] (Value column (both exotherms together)), −235.99 Joule/gram. In addition, the figures for the “Heat of reaction (exothermic)” value in data set [2] (Exotherm 1) and in data set [2] (Exotherm 2) were -2.27 J/g and -233.71 J/g, respectively. In addition, the “non-condensable gas remained in the bomb after completion of the test” value in data set [2] (after cooling to near ambient temperature at 30.7° C.) amounted to 35.5 Bar gauge. The “Total heat released during the ARC test (all exotherms)” value in data set [2] (all exotherms) was -235.98 J/g. In data set [2] (at 208.5° C.), this compound returned a maximum pressure rate of 2.756 bar/min. The “maximum self-heat rate recorded” value in data set [2] (at 211.5° C.) came out at 2.098 K/min. Further, the “thermal hazard in preparing the compound” value in data set [2] (conclusion from ARC and TMR data) was “no significant thermal hazard”. In data set [2] (test stopped by pressure trip), the “Maximum temperature of test” value worked out at 379.2 °C. In addition, in data set [2] (two exotherms), the “total heat of the two exotherms” value amounted to 236.0 J/g.

In the case of `[N-]=[N+]=NCCOC(=O)NCCCC[C@H](N)C(=O)O` [Formula (VIa), N^6-((2-azidoethoxy)carbonyl)-L-lysine], the “Amount of Formula (VIa) in supernatant” value amounted to 36 mg in data set [3] (Supernatant 1, pH 4.44, 0.95 g suspended in 7.2 g water); 37 mg in data set [3] (Supernatant 2, pH 8.13, basified with ammonium hydroxide); 38 mg in data set [3] (Supernatant 3, pH 8.58); 40 mg in data set [3] (Supernatant 4, pH 8.73); 42 mg in data set [3] (Supernatant 5, pH 8.86); 44 mg in data set [3] (Supernatant 6, pH 9.00). For the same compound, in data set [3] (Supernatant 7, pH 9.26), the “Amount of Formula (VIa) in supernatant” value was 44 mg. Besides, in data set [3] (pH range from 4 to 8), the “amount of product in supernatant of a saturated aqueous solution” value was “roughly the same amount of product in its supernatant”.
